Test results from patent US20260234555A1 (priority 2022, published 2026).

System: mouse salivary gland organoids

SMILES	changes in the morphology and growth of the organoids	effect on the morphology and growth of the organoids
CN(C)C(=O)Oc1cccc([N+](C)(C)C)c1 [neostigmine, Neostigmine bromide]	no significant changes	–
CC(=O)OCC[N+](C)(C)C.[Cl-] [acetylcholine, Acetylcholine chloride]	–	no effect
